Assay results from BindingDB's records for patent US10196390 (Nimbus Lakshmi, Inc., 2019).

Biological target: Tyrosine-protein kinase JAK2 (Homo sapiens, UniProt O60674)
Sequence (O60674 whole entry): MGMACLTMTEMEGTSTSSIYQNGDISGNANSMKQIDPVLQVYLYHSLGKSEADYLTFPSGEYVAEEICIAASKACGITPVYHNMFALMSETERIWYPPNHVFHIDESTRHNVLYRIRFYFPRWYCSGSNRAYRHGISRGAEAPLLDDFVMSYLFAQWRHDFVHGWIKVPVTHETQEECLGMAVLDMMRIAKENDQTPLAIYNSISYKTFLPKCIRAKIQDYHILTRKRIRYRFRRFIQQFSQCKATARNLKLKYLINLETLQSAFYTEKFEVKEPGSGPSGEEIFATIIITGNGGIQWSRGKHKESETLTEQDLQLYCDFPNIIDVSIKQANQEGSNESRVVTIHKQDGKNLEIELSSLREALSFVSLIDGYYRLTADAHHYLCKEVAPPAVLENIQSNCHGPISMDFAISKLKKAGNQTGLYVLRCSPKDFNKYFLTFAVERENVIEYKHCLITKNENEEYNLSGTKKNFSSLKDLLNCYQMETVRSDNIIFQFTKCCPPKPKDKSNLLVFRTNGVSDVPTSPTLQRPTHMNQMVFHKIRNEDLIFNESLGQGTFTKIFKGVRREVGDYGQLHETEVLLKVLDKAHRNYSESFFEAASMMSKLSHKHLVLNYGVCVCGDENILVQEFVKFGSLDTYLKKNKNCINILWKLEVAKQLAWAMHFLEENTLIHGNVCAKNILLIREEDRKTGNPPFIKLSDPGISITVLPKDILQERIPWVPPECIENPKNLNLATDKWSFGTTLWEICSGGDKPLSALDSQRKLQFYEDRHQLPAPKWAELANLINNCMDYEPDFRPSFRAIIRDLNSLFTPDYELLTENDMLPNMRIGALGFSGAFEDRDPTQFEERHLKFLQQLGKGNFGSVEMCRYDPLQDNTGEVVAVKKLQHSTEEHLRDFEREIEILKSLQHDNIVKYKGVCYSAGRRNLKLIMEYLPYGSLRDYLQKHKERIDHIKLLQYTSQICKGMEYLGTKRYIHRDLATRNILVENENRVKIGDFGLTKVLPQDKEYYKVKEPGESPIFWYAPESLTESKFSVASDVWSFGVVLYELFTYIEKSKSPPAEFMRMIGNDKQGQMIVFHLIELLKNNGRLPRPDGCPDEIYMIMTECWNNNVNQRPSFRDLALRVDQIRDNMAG

`CCNC(=O)Cc1ncc(Nc2nc(-c3c(F)cccc3F)nc3c2C(=O)NC3)cn1` [US10196390, Compound I-169] and `COC(=O)Cc1ncc(Nc2nc(-c3c(F)cccc3F)nc3c2C(=O)NC3)cn1` [US10196390, Compound I-166] cannot be ordered by Ki: > 1000 nM for the first, > 1000 nM for the second.

`O=C1NCc2nc(-c3c(F)cccc3F)nc(Nc3ccc(OC(F)(F)F)cc3)c21` [US10196390, Compound I-184] and `O=C1NCc2nc(-c3c(F)cccc3F)nc(Nc3ccc(S(=O)(=O)C(F)(F)F)cc3)c21` [US10196390, Compound I-236] cannot be ordered by Ki: > 1000 nM for the first, > 1000 nM for the second.

`CC(C)(C)Nc1ccc(Nc2cc(-c3c(F)cccc3F)nc3c2C(=O)NC3)nc1` [US10196390, Compound I-278] and `CN(c1ccc(Nc2cc(-c3c(F)cccc3F)nc3c2C(=O)NC3)nc1)C(C)(C)C` [US10196390, Compound I-274] cannot be ordered by Ki: < 10 nM for the first, < 10 nM for the second.

`O=C1NCc2nc(-c3c(F)cccc3F)cc(Nc3ccc(F)cn3)c21` [US10196390, Compound I-234] and `O=C1NCc2nc(-c3c(F)cccc3F)cc(Nc3ccc(NS(=O)(=O)C(F)F)cn3)c21` [US10196390, Compound I-277] cannot be ordered by Ki: < 10 nM for the first, < 10 nM for the second.

`O=C1NCc2nc(-c3c(F)cccc3F)cc(Nc3ccc(C(=O)N4CCC(F)(F)CC4)cc3)c21` [US10196390, Compound I-283] and `N#Cc1cccc(F)c1-c1cc(Nc2ccc(C(=O)N3CCOCC3)cc2)c2c(n1)CNC2=O` [US10196390, Compound I-287] cannot be ordered by Ki: < 10 nM for the first, < 10 nM for the second.

`CCNC(=O)c1ccc(Nc2cc(-c3c(F)cccc3C#N)nc3c2C(=O)NC3)nc1` [US10196390, Compound I-282] and `COc1ccc(Nc2cc(-c3c(F)cccc3C#N)nc3c2C(=O)NC3)nc1` [US10196390, Compound I-258] cannot be ordered by Ki: < 10 nM for the first, < 10 nM for the second.

Going from `CC1(C)CCC(=O)N1c1ccc(Nc2cc(-c3c(F)cccc3F)nc3c2C(=O)NC3)nc1` [US10196390, Compound I-272] to `O=C1NCc2nc(-c3c(F)cccc3F)cc(Nc3ccc(N4CCCC4)cn3)c21` [US10196390, Compound I-205], the Ki rises from < 10 nM to > 1000 nM.

First: CC(C)N1CCN(c2ccc(Nc3cc(-c4c(F)cccc4F)nc4c3C(=O)NC4)nc2)CC1 [US10196390, Compound I-256]
Second: O=C1NCc2nc(-c3c(F)cccc3F)cc(Nc3ccc(N4CCC5(CC5)C4)cn3)c21 [US10196390, Compound I-233]
The Ki of the first is lower: < 10 nM for the first, > 1000 nM for the second. The first binds more tightly here.

`Cc1ccc(Nc2nc(-c3c(F)cccc3F)nc3c2C(=O)NC3)cc1` [US10196390, Compound I-21] and `Cc1ccc(Nc2nc(-c3c(F)cccc3F)nc3c2C(=O)NC3)cc1F` [US10196390, Compound I-292] cannot be ordered by Ki: > 1000 nM for the first, > 1000 nM for the second.

Compared with `O=C1NCc2nc(-c3c(F)cccc3F)nc(Nc3ccc(C4CCCCC4)cc3)c21` [US10196390, Compound I-197], `C[C@@H]1COC[C@@H](C)N1C(=O)c1ccc(Nc2cc(-c3c(F)cccc3F)nc3c2C(=O)NC3)cc1` [US10196390, Compound I-285] is lower in Ki: > 1000 nM for the first, < 10 nM for the second.

`C[C@H]1COC[C@H](C)N1c1ccc(Nc2cc(-c3c(F)cccc3F)nc3c2C(=O)NC3)nc1` [US10196390, Compound I-264] and `CC1CC(O)CC(C)N1c1ccc(Nc2cc(-c3c(F)cccc3F)nc3c2C(=O)NC3)nc1` (stereo not drawn) [US10196390, Compound I-288] cannot be ordered by Ki: < 10 nM for the first, < 10 nM for the second.

In the case of `CCN(CC)C(=O)c1ccc(Nc2cc(-c3c(F)cccc3F)nc3c2C(=O)NC3)cc1` [US10196390, Compound I-259], the Ki is reported as < 10 nM.
